From patent US20110105603A1, “COMPOSITIONS AND METHODS FOR TREATING BETA-AMYLOID RELATED DISEASES” (priority 2009, published 2011)

Assays:
[1] = system: brain Aβ40 and brain Aβ42; experiment: Example 8: brain Aβ40 and Aβ42 ELISA after oral gavage in wild-type guinea pigs; format: in vivo; conditions: guinea pig, 10 mg/kg/day oral, 7 days
dogs = conditions: cited from earlier work
[2] = cited from earlier work
cathepsin B [3] = experiment: Example 9: brain cathepsin B activity in guinea pigs; format: in vivo, guinea pig; conditions: once-a-day oral
Description: Guinea Pig Gavage Dosing: Guinea pigs were gavaged daily for one week. Guinea pigs were lightly anesthetized with isoflurane prior to gavaging. 250 μl of compound solution was gavaged daily per animal and animals were sacrificed 4 hrs after the last dosing.
The brain cathepsin B activity in guinea pigs was measured as follows: Cathepsin B activity was determined using a fluorometric assay kit from Abcam, Inc. (catalog ab65300; Cambridge, Mass.) as described by the manufacturer.

[4] = animals, radioactive AB-007; cited from earlier work
transgenic APPlon mice = experiment: Example 9: Morris water maze, spatial memory deficit in transgenic APPlon mice; conditions: E64d-doped chow 1 or 3 months, either age group
Description: Transgenic AD Mice. Transgenic mice expressing human APP containing the wt β-secretase site and the London mutant γ-secretase site sequences (also called “transgenic APPlon mice”, or “London APP mice”) were generated at the Ralph A. Johnson VA Medical Center (Charleston, S.C.) by methods previously described, see e.g., Hook, et al. (2008) J. Biol. Chem. 283:7745-7753. Briefly, APPLn was generated using site-directed mutagenesis to insert the V7171 London mutation into human APP cDNA. The mouse strain was created in a C57BL/6 mouse background using the Thy-1.2 expression cassette driven by the Thy-1 promoter containing an SV40 polyadenylation site. Mice were given free access to food and water before and during the experiment. […]
The memory deficit in transgenic APPln mice (APPlon mice) was measured using the Morris water maze test. Briefly, the spatial memory capability of each animal was assessed by the Morris water maze test as described e.g., by S. Mueller-Steiner (2006) Neuron 51:703-714; using catalog part no. […] Two days following the nonspatial pretraining, the hidden platform was placed in the center of one quadrant of the pool, the animal was released facing the pool wall in a random fashion, the time was recorded (latency period), and the distance traveled to reach the platform was measured using video recording (Smart Video Tracking System; SD Instruments).

BACE1 = experiment: Example 9: brain BACE1 activity in guinea pigs; format: in vivo, guinea pig; conditions: once-a-day oral
Description: Guinea Pig Gavage Dosing: Guinea pigs were gavaged daily for one week. Guinea pigs were lightly anesthetized with isoflurane prior to gavaging. 250 μl of compound solution was gavaged daily per animal and animals were sacrificed 4 hrs after the last dosing. The brain BACE1 activity in guinea pigs was measured by Beta secretase activity was determined using a fluorometric assay kit from Abcam (ab65357) as described by the manufacturer.

Aβ40 and Aβ42 = experiment: Example 9: brain, CSF and plasma Aβ after once-a-day gavage in guinea pigs; format: in vivo, guinea pig; conditions: once-a-day for one week oral
Text: Guinea Pigs. Guinea Pigs (Harley strain, average weight 400 g corresponding to animals about 6 weeks old) were obtained from Charles River (Wilmington, Mass.). The animals were given free access to standard chow and water before and during the experiment. Gavage Formulation: Delivering a drug by gavage offers the advantage of accurate dosing but is traumatic and thus only suitable for relatively short dosing periods. Gavage delivery was used for the guinea pig work. E64d was resuspended in DMSO at indicated concentrations (see Figures, and below) and guinea pigs were gavaged daily using a feeding tube. Vehicle control animals were provided DMSO alone. Guinea Pig Gavage Dosing: Guinea pigs were gavaged daily for one week. Guinea pigs were lightly anesthetized with isoflurane prior to gavaging. 250 μl of compound solution was gavaged daily per animal and animals were sacrificed 4 hrs after the last dosing.

[5] = oral; cited from earlier work
rats = conditions: cited from earlier work
healthy human volunteers = conditions: single or continuous 1 week oral administration at about 5 mg/kg/day; cited from earlier work
[6] = system: dogs with canine dementia; conditions: in one month; cited from earlier work
Cathepsin B [7] = molecular target: Cathepsin B (Homo sapiens, UniProt P07858); experiment: biochemical

## CCOC(=O)[C@H]1O[C@@H]1C(=O)N[C@@H](CC(C)C)C(=O)NCCC(C)C (relative stereo) [AB-007, (2S,3S)-trans-epoxysuccinyl-L-leucyl-amido-3-methylbutane ethyl ester]
[1]
  reduction of brain Aβ42 relative to vehicle control: 42%
dogs; dog, in vivo
  chronic toxicity no-effect dose level: < 5 mg/kg/day
dogs; oral, dogs
  subacute no-effect dose: < 40 mg/kg/day
[2]; high oral doses (500 mg/kg and 1 g/kg)
  effect on the central nervous system: depress the central nervous system, causing sedation and mild inhibition of pentetrazol-induced seizure
[2]; maximal intravenous or oral doses, rats
  influence on vision or hearing: do not influence vision or hearing
Cathepsin B [3]
  brain cathepsin B activity: dose response reduction
[4]
  concentration in all other organs, including the brain: corresponding to the plasma concentration or concentrations lower than plasma
  kidney concentration relative to plasma concentration: ~12 times
Transgenic APPlon mice
  mean latency period relative to age-matched controls: significantly reduced
BACE1
  brain BACE1 activity: increase
Aβ40 and Aβ42
  CSF Aβ: dose response reduction
  CSF Aβ(42): dose response reduction
  brain Aβ(40): dose response reduction
  brain Aβ(42): dose response reduction
  plasma Aβ(40): dose response reduction
  plasma Aβ(42): dose response reduction
[5]
  conversion in the gut to E64c: rapidly and completely converted
rats; oral, rats
  subacute no-effect dose: under 80 mg/kg/day
rats; rat, in vivo
  chronic toxicity no-effect dose level: below 2 mg/kg/day
  target organs for toxicity: liver and kidney
rats; rats versus other species
  hepatic injury, species sensitivity: hepatic injury seen in rats does not occur in other species
Healthy human volunteers
  hematological tests, blood chemistry, urinalyses: no changes
  pulse, blood pressure, body temperature, grip force, electrocardiogram, physician observations: no change

## C#CCN(C)[C@H](C)Cc1ccccc1 [Anipryl]
[6]
  affected dogs with improved behavior: about 75%

## [2H]C([2H])([2H])C(C)C[C@H](NC(=O)[C@H]1O[C@@H]1C(=O)O)C(=O)NCCC(C)C (stereo partly drawn) [Compound 1B, (2S,3S)-3-((S)-1-(Isopentylamino)-4-methyl-d3-1-oxopentan-2-ylcarbamoyl)oxirane-2-carboxylic acid]
Cathepsin B [7]
  IC50: 2 nM

## [2H]C([2H])([2H])C([2H])(C[C@H](NC(=O)[C@H]1O[C@@H]1C(=O)O)C(=O)NCCC(C)C)C([2H])([2H])[2H] [Compound 2B, (2S,3S)-3-((S)-4,5,5,5-d4-1-(isopentylamino)-1-oxo-4-(methyl-d3)pentan-2-ylcarbamoyl)oxirane-2-carboxylic acid]
Cathepsin B [7]
  IC50: 1.5 nM

## [2H][C@@](CC(C)C)(NC(=O)[C@H]1O[C@@H]1C(=O)O)C(=O)NCCC(C)C [Compound 3B, (2S,3S)-3-((S)-2-d1-1-(isopentylamino)-4-methyl-1-oxopentan-2-ylcarbamoyl)oxirane-2-carboxylic acid]
Cathepsin B [7]
  IC50: 1.9 nM

## CC(C)CCNC(=O)[C@H](CC(C)C)NC(=O)[C@H]1O[C@@H]1C(=O)O [Compound E64c]
Cathepsin B [7]
  IC50: 1 nM

## [2H]C([2H])([2H])C([2H])(CCNC(=O)[C@H](CC(C)C)NC(=O)[C@H]1O[C@@H]1C(=O)OCC)C([2H])([2H])[2H] [Compound E64d7]
Cathepsin B [3]
  brain cathepsin B activity: dose response reduction
BACE1
  brain BACE1 activity: increase
Aβ40 and Aβ42
  CSF Aβ: dose response reduction
  CSF Aβ(42): dose response reduction
  brain Aβ(40): dose response reduction
  brain Aβ(42): dose response reduction
  plasma Aβ(40): dose response reduction
  plasma Aβ(42): dose response reduction
